Target: human PD-L1 (Homo sapiens (Human), UniProt Q9NZQ7)
Assay: Enzyme-Linked Immunosorbent Assay—ELISA (PD-1/PD-L1 binding)
Conditions: plates coated with human PD-L1; Human PD-1 and biotin added; absorbance at 450 nm
Method: 96 Well plates were coated with 1 μg/mL of human PD-L1 (obtained from R&D) in PBS overnight at 4° C. The wells were then blocked with 2% BSA in PBS (W/V) with 0.05% TWEEN-20 for 1 hour at 37° C. The plates were washed 3 times with PBS/0.05% TWEEN-20 and the compounds were serial diluted (1:5) in dilution medium and added to the ELISA plates. Human PD-1 and biotin 0.3 μg/mL (ACRO Biosystems) were added and incubated for 1 hour at 37° C. then washed 3 times with PBS/0.05% TWEEN-20. A second block was performed with 2% BSA in PBS (W/V)/0.05% TWEEN-20 for 10 min at 37° C. and the plates were washed 3 times with PBS/0.05% TWEEN-20. Streptavidin-HRP was added for 1 hour at 37° C. then the plates were washed 3 times with PBS/0.05% TWEEN-20. TMB substrate was added and reacted for 20 min at 37° C. A stop solution (2 N aqueous H2SO4) was added. The absorbance was read at 450 nm using a micro-plate spectrophotometer. The results are shown in Table 1: IC50 values are provided as follows: from 1000 to 10,000 nM (+); from 10 up to 1000 nM (++); less than 10 nM (+++).

Sequence of human PD-L1 (Q9NZQ7 19-239): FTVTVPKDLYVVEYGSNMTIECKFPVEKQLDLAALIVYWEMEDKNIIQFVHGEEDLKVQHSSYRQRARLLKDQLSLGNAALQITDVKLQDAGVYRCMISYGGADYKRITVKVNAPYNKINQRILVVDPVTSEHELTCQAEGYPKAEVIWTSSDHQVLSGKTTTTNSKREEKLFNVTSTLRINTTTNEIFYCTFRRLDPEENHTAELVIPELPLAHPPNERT

Row | IC50 | SMILES
1 | < 10 nM | COc1nc(-c2cccc(-c3cccc(NC(=O)c4cn(C)c(=O)n(C)c4=O)c3C)c2Cl)ccc1CNC[C@H](C)O [Compound 1.029]
2 | < 10 nM | CNCc1ccc(-c2cccc(-c3cccc(NC(=O)c4cn(C)c(=O)n(C)c4=O)c3C)c2Cl)nc1OC [Compound 1.031]
3 | < 10 nM | COc1nc(-c2cccc(-c3cccc(NC(=O)c4cn(C)c(=O)n(C)c4=O)c3Cl)c2Cl)cnc1CN1CCCC[C@H]1C(=O)O [Compound 1.091]
4 | < 10 nM | CCOc1nc(-c2cccc(-c3cccc(NC(=O)c4cn(C)c(=O)n(C)c4=O)c3C)c2Cl)ccc1CNC[C@@H]1CCC(=O)N1 [Compound 1.047]
5 | < 10 nM | COc1nc(-c2cccc(-c3cccc(NC(=O)c4cncn(C)c4=O)c3Cl)c2Cl)ccc1CNC[C@@H]1CCC(=O)N1 [Compound 1.060]

Reference: US11713307B2, “Heteroaryl-biphenyl amides for the treatment of PD-L1 diseases” (CHEMOCENTRYX, INC., priority 2019, dated 2023)
